Measurements: patent EP0597303A2, “Cephalosporin derivatives” (priority 1992, dated 1994)
Where a name gives a salt, the structure may show the parent alone. Read-outs that look alike come from different tables or passages of the source.

What was measured:
Test in all cases: MIC, Agar (Mueller Hinton) Dilution Method
Type in all cases: cell-based
[1] = test system: Proteus vulgaris ATCC 6380; settings: ATCC6380; Proteus vulgaris ATCC 6380; constitutive ß-lactamase producer; Gram Negative; read-out: MIC
Text: (§1) The in vitro activity of the compounds of formula I of the present invention as measured by the Minimum Inhibitory Concentration (MIC) in micrograms/ml utilizing the Agar (Mueller Hinton) Dilution Method against a variety of Gram-positive and Gram-negative organisms, is set forth in Table 1.

Staph. pyogenes 4 = settings: Staph. pyogenes 4; Gram Positive and Others; read-out: MIC
Text: as §1

Klebsiella pneumoniae A = settings: Gram Negative
Text: as §1

Micrococcus luteus PCI = test system: Micrococcus luteus PCI
Text: as §1

Cit. freundii EL-1408 = settings: Citrobacter freundii, EL1408; Cit. freundii EL-1408; Gram Negative; read-out: MIC
Text: as §1

Staph. aureus ATCC 29213 = settings: Staphylococcus aureus, ATCC29213; Staph. aureus ATCC 29213; Gram Positive and Others; read-out: MIC
Text: as §1

E. coli B = settings: Escherichia coli, Gram Negative
Text: as §1

Staph. aureus Evans = settings: Staphylococcus aureus
Text: as §1

E. coli 1527E = settings: Escherichia coli, Gram Negative
Text: as §1

Ps. aeruginosa 18SH = settings: Pseudomonas aeruginosa, constitutive ß-lactamase producer, Gram Negative
Text: as §1

Ent. hirae ATCC 8043 = settings: Enterococcus hirae, ATCC8043, Gram Positive and Others
Text: as §1

E. coli TEM-1a = settings: Escherichia coli, TEM1A
Text: as §1

Staph. aureus 404 = settings: Staphylococcus aureus; Staph. aureus 404; Gram Positive and Others; read-out: MIC
Text: as §1

Mycobacterium phlei 78 = settings: Mycolicibacterium phlei; Mycobacterium phlei 78; Gram Positive and Others; read-out: MIC
Text: as §1

Staph. aureus 95 = settings: Staphylococcus aureus; Staph. aureus 95; Gram Positive and Others; read-out: MIC
Text: as §1

Prov. rettgeri ATCC 9250 = settings: Providencia rettgeri, ATCC9250, Gram Negative
Text: as §1

Ser. marcescens 1071 = settings: Serratia marcescens; Ser. marcescens 1071; Gram Negative; read-out: MIC
Text: as §1

Enter. cloacae 4192-2 = settings: Enterobacter cloacae, 41922
Text: as §1

E. coli 2722B = settings: Escherichia coli, Gram Negative
Text: as §1

A. calcoaceticus PCI-3 = settings: Acinetobacter calcoaceticus, PCI3, Gram Negative
Text: as §1

Ser. sp. 101 = settings: Ser. sp. 101; Gram Negative; read-out: MIC
Text: as §1

Ps. aeruginosa 56 = settings: Pseudomonas aeruginosa, Gram Negative
Text: as §1

Serratia marcescens SM = settings: Serratia marcescens SM; constitutive ß-lactamase producer; Gram Negative; read-out: MIC
Text: as §1

Ps. aeruginosa 1973 E = settings: Pseudomonas aeruginosa, Gram Negative
Text: as §1

E. coli 2008 E = settings: Escherichia coli; E. coli 2008 E; Gram Negative; read-out: MIC
Text: as §1

[2] = test system: Pseudomonas aeruginosa 5712; settings: Gram Negative
Text: as §1

Prot. vulgaris 100 = settings: Proteus vulgaris, Gram Negative
Text: as §1

Staph. aureus 82 = settings: Staphylococcus aureus
Text: as §1

E. coli Leo HA2M4 = settings: Escherichia coli, LEOHA2M4
Text: as §1

Ps. aeruginosa B = settings: Pseudomonas aeruginosa, Gram Negative
Text: as §1

Ps. aeruginosa K799/61 = settings: Pseudomonas aeruginosa
Text: as §1

Staph. aureus 1059B = settings: Staphylococcus aureus; Staph. aureus 1059B; Gram Positive and Others; read-out: MIC
Text: as §1

Prot. mirabilis 620A = settings: Proteus mirabilis
Text: as §1

Prot. mirabilis 190 = settings: Proteus mirabilis; Prot. mirabilis 190; Gram Negative; read-out: MIC
Text: as §1

E. coli DC-2 = settings: Escherichia coli, DC2, Gram Negative
Text: as §1

Escherichia coli 257 = settings: Gram Negative
Text: as §1

Ps. aeruginosa 1937E = settings: Pseudomonas aeruginosa, Gram Negative
Text: as §1

Prot. mirabilis 90 = settings: Proteus mirabilis; Prot. mirabilis 90; Gram Negative; read-out: MIC
Text: as §1

Ent. faecalis ATCC 29212 = settings: Enterococcus faecalis, ATCC29212, Gram Positive and Others
Text: as §1

Structure (SMILES) | MIC [1] [µg/mL] | MIC (Staph. pyogenes 4) [µg/mL] | MIC (Klebsiella pneumoniae A) [µg/mL] | MIC (Cit. freundii EL-1408) [µg/mL] | MIC (Staph. aureus ATCC 29213) [µg/mL] | MIC (E. coli B) [µg/mL] | MIC (E. coli 1527E) [µg/mL] | MIC (Ps. aeruginosa 18SH) [µg/mL] | MIC (Ent. hirae ATCC 8043) [µg/mL] | MIC (E. coli TEM-1a) [µg/mL] | MIC (Staph. aureus 404) [µg/mL] | MIC (Mycobacterium phlei 78) [µg/mL] | MIC (Staph. aureus 95) [µg/mL] | MIC (Prov. rettgeri ATCC 9250) [µg/mL] | MIC (Ser. marcescens 1071) [µg/mL] | MIC (E. coli 2722B) [µg/mL] | MIC (A. calcoaceticus PCI-3) [µg/mL] | MIC (Ser. sp. 101) [µg/mL] | MIC (Ps. aeruginosa 56) [µg/mL] | MIC (Serratia marcescens SM) [µg/mL] | other results
O=C(Cc1cccs1)N[C@@H]1C(=O)N2C(C(=O)O)=C(COC(=O)N3CCN(c4c(F)cc5c(=O)c(C(=O)O)cn(C6CC6)c5c4F)CC3)CS[C@H]12 [Formula Ia, [6R,7R]-3-[[[[4-(3-Carboxy-1-cyclopropyl-6,8-difluoro-1,4-dihydro-4-oxo-7-quinolinyl)-1-piperazinyl]carbonyl]-oxy]-methyl]-8-oxo-7-[(2-thienylacetyl)amino]-5-thia-1-azabicyclo-[4.2.0]oct-2-ene-2-carboxylic acid] | 0.125 | ≤ 0.0156 | 0.25 | 0.25 | 0.5 | 0.0313 | ≤ 0.0156 | 1 | 2 | 0.0625 | 0.5 | 0.125 | 0.5 | 0.25 | 0.125 | ≤ 0.0156 | 0.25 | 0.5 | 1 | 0.5 | MIC (Micrococcus luteus PCI; Micrococcus luteus PCI, Gram Positive and Others, read-out: MIC): ≤ 0.0156 µg/mL; MIC (Staph. aureus Evans; Staph. aureus Evans, Gram Positive and Others, read-out: MIC): 0.5 µg/mL; MIC (Enter. cloacae 4192-2): 0.0625 µg/mL; MIC (Ps. aeruginosa 1973 E): 1 µg/mL; MIC (E. coli 2008 E): 0.0313 µg/mL; MIC [2]: 2 µg/mL; MIC (Prot. vulgaris 100): 0.125 µg/mL; MIC (Staph. aureus 82; Staph. aureus 82, Gram Positive and Others, read-out: MIC): 0.125 µg/mL; MIC (E. coli Leo HA2M4; E. coli Leo HA2M4, Gram Negative, read-out: MIC): ≤ 0.0156 µg/mL; MIC (Ps. aeruginosa B): 0.5 µg/mL; MIC (Ps. aeruginosa K799/61; Ps. aeruginosa K799/61, Gram Negative, read-out: MIC): 2 µg/mL; MIC (Staph. aureus 1059B): 0.25 µg/mL; MIC (Prot. mirabilis 620A; 620A): 0.0625 µg/mL; MIC (Prot. mirabilis 190): 0.125 µg/mL; MIC (E. coli DC-2): 0.25 µg/mL; MIC (Escherichia coli 257): 0.0625 µg/mL; MIC (Ps. aeruginosa 1937E): 1 µg/mL; MIC (Prot. mirabilis 90): 0.5 µg/mL; MIC (Ent. faecalis ATCC 29212): 4 µg/mL
N#CCC(=O)N[C@@H]1C(=O)N2C(C(=O)O)=C(COC(=O)NC3CCN(c4c(F)cc5c(=O)c(C(=O)O)cn(C6CC6)c5c4F)C3)CS[C@H]12 (stereo partly drawn) [Formula Ib, [6R,7R]-3-[[[[[1-(3-Carboxy-1-cyclopropyl-6,8-difluoro-1,4-dihydro-4-oxo-7-quinolinyl-3-[R,S]-pyrrolidinyl]-amino]carbonyl]oxy]methyl]-7-[(cyanoacetyl)amino]-8-oxo-5-thia-1-azabicyclo[4.2.0]oct-2-ene-2-carboxyiic acid monosodium salt] | 0.25 | 0.0625 | 0.25 | 0.25 | 0.25 | 0.0625 | 0.0625 | 0.5 | 2 | 0.125 | 0.25 | 0.25 | 0.25 | 0.25 | 0.25 | ≤ 0.0156 | 0.25 | 0.25 | 0.5 | 0.25 | MIC (Micrococcus luteus PCI; Micrococcus luteus): 0.125 µg/mL; MIC (Staph. aureus Evans): 0.125 µg/mL; MIC (Enter. cloacae 4192-2; Enter. cloacae 4192-2, Gram Negative, read-out: MIC): 0.0625 µg/mL; MIC (Ps. aeruginosa 1973 E): 0.5 µg/mL; MIC (E. coli 2008 E): 0.0625 µg/mL; MIC [2]: 2 µg/mL; MIC (Prot. vulgaris 100): 0.25 µg/mL; MIC (Staph. aureus 82; 82): 0.125 µg/mL; MIC (E. coli Leo HA2M4): 0.0313 µg/mL; MIC (Ps. aeruginosa B): 0.25 µg/mL; MIC (Ps. aeruginosa K799/61; K799/61): 0.125 µg/mL; MIC (Staph. aureus 1059B): 0.25 µg/mL; MIC (Prot. mirabilis 620A; Prot. mirabilis 620A, Gram Negative, read-out: MIC): 0.25 µg/mL; MIC (Prot. mirabilis 190): 0.25 µg/mL; MIC (E. coli DC-2): 0.25 µg/mL; MIC (Escherichia coli 257): 0.125 µg/mL; MIC (Ps. aeruginosa 1937E): 0.5 µg/mL; MIC (Prot. mirabilis 90): 1 µg/mL; MIC (Ent. faecalis ATCC 29212): 2 µg/mL
